Several values for one entry are separate records, joined by “and”; a condition that tells them apart may be missing. Identical values can stand only once. Entries after “also recorded” stand apart in the source; their conditions may differ. Like-named read-outs stand apart in the source and are kept apart here.
Columns and labels:
[1] = molecular target: T1, NE (Homo sapiens, UniProt P08246); conditions: whole-blood assay; cited from earlier work
[2] = system: murine model of GVHD; type: in vivo
[3] = system: patients with BOS and chronic GVHD after HCT
[4] = molecular target: T2, murine NE (Mus musculus, UniProt Q3UP87); conditions: cited from earlier work
T2 sequence (Q3UP87 27-265): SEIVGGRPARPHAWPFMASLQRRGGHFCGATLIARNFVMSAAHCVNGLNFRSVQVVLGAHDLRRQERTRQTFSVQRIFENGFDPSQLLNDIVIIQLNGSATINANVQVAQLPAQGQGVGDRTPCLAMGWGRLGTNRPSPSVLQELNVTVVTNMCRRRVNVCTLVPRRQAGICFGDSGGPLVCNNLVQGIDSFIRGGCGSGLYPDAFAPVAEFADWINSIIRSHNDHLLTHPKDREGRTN

[5] = molecular target: T3, human NE (Homo sapiens, UniProt P08246); conditions: cited from earlier work
T3 sequence (P08246 30-267): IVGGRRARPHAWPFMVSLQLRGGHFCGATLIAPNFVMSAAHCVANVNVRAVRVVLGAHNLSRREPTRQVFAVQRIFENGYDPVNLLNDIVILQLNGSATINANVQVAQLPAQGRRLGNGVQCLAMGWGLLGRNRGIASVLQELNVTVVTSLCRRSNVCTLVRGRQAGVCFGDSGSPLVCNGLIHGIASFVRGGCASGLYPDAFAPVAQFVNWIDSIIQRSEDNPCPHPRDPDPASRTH

[6] = molecular target: T3, human NE; conditions: read-out: binding affinity KD; cited from earlier work
[7] = molecular target: T1, NE; conditions: cell-associated assay; cited from earlier work

SMILES: Cc1c(-c2ccnn2C)cc(C(=O)NCc2ccc(S(C)(=O)=O)cn2)c(=O)n1-c1cccc(C(F)(F)F)c1 [alvelestat, N-{[5-(methanesulfonyl)pyridin-2-yl]methyl}-6-methyl-5-(1-methyl-1H-pyrazol-5-yl)-2-oxo-1-[3-(trifluoromethyl)phenyl]-1,2-dihydropyridine-3-carboxamide]
- IC50 [1]: 44 nM
- pIC50 [1]: 7.36
- histological scoring of GI GVHD ([2]; 20 mg/kg diet vs T2e6, sacrificed Day 4, blinded pathologist, n=5/group, p=0.08, FIG. 4): trend toward increased pathology in the T2e6 group; also recorded: markedly less GVHD
- survival ([2]; T-cell dose experiment, 20 mg/kg in pre-mixed diet pellets, vs 2x10^6 T cells alone, p<0.001, n=5/group, FIG. 2A, 20 mg/kg): significantly improved survival; also recorded: better survival
- toxicity in skin or liver (histology) ([2]; mice receiving T2e6+20 mg/kg diet, Day 4): no toxicity was observed
- survival ([2]; powder mixed with wet food, days -1 to 45, TCDBM+T2e6+20 mg/kg wet food vs TCDBM+T2e6, log-rank p=0.01, FIG. 1B): significant improvements in survival
- survival ([2]; pre-mixed diet pellets, days -1 to 45, TCDBM+T2e6+20 mg/kg diet vs TCDBM+T2e6, log-rank p=0.001, FIG. 1A): significant improvements in survival
- dose-response in improvement in survival, body weight or GVHD score ([2]; three doses tested: 20, 50, 200 mg/kg per day, FIG. 1C-1F): does not appear to be a dose-response
- LSS score for lung/breathing at C5 ([3]; Lee cGVHD Symptom Scale, C5 = continuation dosing period up to 6 months, individual patients #1-7): 7 and 3 (2×) and 11 and 2 and 5 and 4
- LSS score for lung/breathing at the end of treatment ([3]; Lee cGVHD Symptom Scale, individual patients #1-7): 8 and 2 and 11 and 3 and 7 and 5 and 1
- patients with progressive disease ([3]; NIH chronic GVHD consensus criteria, decline in FEV1 after pneumonia, of 7 patients): 1 patient
- grade 2 adverse event possibly related: ALT or AST elevation ([3]; human, in vivo): 3 patients
- grade 2 adverse event possibly related: increased creatinine ([3]; human, in vivo): 3 patients
- grade 2 adverse event possibly related: upper respiratory infection ([3]; human, in vivo): 3 patients
- grade 3 adverse event possibly related: gastroenteritis and vomiting requiring hospitalization ([3]; human, in vivo): 1 patient
- grade 3 adverse event possibly related: pneumonia ([3]; human, in vivo): 1 patient
- patients requiring dose interruptions ([3]; human, in vivo): Four
- patients requiring dose reduction ([3]; human, in vivo): 1
- patients who discontinued treatment prior to end of study ([3]; human, in vivo): Four
- maximum dose to which all 7 patients tolerated dose escalation ([3]; human, in vivo, po, 8 weeks): 240 mg twice daily
- End of treatment FEV1 % predicted ([3]; individual patients (patient #1-7)): 47% and 55% and 40% and 46% and 38% and 41% and 73%
- patients with improvement in Lee chronic GVHD symptom scale lung score ([3]; of 7 patients, 2 during the 6 month treatment period, 2 at end of treatment): 4 patients
- maximum tolerated dose (MTD) ([3]; oral, intra-patient escalation 60 to 240 mg twice daily, 7 patients): not reached
- improvement in FEV1 ([3]; seen in 2 of 7 patients): 9%
- crossover potency for NE from other species ([4]; NE from other species, including mice): good crossover potency
- pIC50 ([4]; murine NE): 6.5
- Ki [5]: 9.4 nM
- pIC50 [5]: 7.9
- reversibility of inhibition [5]: rapidly reversible
- Kd [6]: 9.5 nM
- IC50 [7]: 48 nM
- pIC50 [7]: 7.32

From US20220354833A1, “ALVELESTAT FOR USE IN THE TREATMENT OF GRAFT REJECTION, BRONCHIOLITIS OBLITERANS SYNDROME AND GRAFT VERSUS HOST DISEASE” (MEREO BIOPHARMA 4 LIMITED, priority 2019, published 2022)
